Test results: ChEMBL document CHEMBL1201862, “PubChem BioAssay data set” (2004)
Activity calls are given as the source filed them.

Assays:
[1] = biological target: T1, Caspase-3 (Homo sapiens, UniProt P42574); format: functional;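 further: Dose-response selectivity test against caspase-3 for candidate inhibitors of sentrin-specific proteases (SENPs)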
T1 sequence (P42574 whole entry): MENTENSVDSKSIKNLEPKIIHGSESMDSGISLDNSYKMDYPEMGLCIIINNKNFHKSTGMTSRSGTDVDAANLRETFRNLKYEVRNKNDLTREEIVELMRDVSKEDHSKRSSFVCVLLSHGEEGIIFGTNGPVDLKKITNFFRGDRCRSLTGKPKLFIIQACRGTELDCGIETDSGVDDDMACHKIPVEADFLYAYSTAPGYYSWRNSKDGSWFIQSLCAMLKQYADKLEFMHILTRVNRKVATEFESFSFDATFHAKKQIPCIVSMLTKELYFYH

[2] = biological target: T2, Sentrin-specific protease 7 (Homo sapiens, UniProt Q9BQF6); format: functional;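 further: Luminescence-based dose-response confirmation of ultra-high-throughput screening hits, measuring inhibition of SENP7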
T2 sequence (Q9BQF6 whole entry): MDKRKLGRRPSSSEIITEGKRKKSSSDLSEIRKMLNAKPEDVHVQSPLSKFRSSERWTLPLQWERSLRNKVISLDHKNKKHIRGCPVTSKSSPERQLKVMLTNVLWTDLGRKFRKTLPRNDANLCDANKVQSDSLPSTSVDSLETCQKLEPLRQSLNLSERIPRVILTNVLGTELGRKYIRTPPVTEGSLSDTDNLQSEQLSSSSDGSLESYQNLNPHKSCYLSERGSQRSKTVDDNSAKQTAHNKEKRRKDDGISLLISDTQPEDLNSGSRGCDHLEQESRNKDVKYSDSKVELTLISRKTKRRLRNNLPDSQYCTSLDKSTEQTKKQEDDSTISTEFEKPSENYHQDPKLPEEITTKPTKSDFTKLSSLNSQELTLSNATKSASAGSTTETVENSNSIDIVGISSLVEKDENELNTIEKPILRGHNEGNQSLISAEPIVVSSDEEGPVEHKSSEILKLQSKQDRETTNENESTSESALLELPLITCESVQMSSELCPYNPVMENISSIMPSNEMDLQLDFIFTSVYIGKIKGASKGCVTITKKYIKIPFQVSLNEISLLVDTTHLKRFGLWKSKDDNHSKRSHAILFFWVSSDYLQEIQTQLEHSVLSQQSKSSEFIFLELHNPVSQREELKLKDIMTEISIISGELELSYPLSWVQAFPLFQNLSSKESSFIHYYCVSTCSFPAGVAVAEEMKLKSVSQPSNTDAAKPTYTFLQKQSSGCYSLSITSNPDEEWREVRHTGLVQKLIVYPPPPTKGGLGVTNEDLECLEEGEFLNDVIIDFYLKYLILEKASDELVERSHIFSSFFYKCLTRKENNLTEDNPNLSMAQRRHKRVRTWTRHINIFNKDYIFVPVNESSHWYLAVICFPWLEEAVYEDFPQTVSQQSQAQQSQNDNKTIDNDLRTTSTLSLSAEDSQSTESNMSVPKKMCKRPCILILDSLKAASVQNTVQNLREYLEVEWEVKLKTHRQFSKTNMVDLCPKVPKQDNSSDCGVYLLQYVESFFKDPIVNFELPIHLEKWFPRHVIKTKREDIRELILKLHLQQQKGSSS

[3] = biological target: T3, Sentrin-specific protease 6 (Homo sapiens, UniProt Q9GZR1); format: functional;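 further: Luminescence-based dose-response confirmatory assay of SENP6 inhibition, following up an ultra-high-throughput screen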
T3 sequence (Q9GZR1 whole entry): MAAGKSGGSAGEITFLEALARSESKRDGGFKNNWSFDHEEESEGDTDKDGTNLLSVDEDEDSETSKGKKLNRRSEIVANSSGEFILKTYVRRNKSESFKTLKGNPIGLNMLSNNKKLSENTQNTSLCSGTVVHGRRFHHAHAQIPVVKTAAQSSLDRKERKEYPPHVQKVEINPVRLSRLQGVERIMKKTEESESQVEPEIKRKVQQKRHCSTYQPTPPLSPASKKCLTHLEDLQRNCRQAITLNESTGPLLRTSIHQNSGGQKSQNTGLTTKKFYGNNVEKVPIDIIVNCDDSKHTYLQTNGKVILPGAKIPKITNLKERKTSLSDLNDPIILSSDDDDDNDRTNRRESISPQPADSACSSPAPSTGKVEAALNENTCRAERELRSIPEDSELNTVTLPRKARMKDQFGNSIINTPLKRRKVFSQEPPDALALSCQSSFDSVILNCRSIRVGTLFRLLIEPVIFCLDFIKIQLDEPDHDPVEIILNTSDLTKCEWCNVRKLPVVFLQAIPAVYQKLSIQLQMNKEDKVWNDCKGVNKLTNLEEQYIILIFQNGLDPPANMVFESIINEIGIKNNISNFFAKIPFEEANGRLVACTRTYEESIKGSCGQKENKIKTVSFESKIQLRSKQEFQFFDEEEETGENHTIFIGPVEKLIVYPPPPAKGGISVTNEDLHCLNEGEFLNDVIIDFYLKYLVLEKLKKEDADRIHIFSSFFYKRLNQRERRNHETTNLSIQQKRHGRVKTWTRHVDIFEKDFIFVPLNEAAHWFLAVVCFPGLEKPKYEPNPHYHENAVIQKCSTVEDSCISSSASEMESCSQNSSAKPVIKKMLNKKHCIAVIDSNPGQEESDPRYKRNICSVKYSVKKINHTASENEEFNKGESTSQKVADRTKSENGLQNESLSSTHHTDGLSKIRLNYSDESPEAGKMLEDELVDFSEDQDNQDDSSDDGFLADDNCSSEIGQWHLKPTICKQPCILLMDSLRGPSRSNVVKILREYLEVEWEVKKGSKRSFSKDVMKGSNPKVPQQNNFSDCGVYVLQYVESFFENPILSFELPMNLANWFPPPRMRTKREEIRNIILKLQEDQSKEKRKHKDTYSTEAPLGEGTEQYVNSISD

[4] = biological target: T4, Sentrin-specific protease 8 (Homo sapiens, UniProt Q96LD8); format: functional;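 further: luminescence read-out of SENP8 inhibition, dose-response confirmation following an ultra-high-throughput screen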
T4 sequence (Q96LD8 whole entry): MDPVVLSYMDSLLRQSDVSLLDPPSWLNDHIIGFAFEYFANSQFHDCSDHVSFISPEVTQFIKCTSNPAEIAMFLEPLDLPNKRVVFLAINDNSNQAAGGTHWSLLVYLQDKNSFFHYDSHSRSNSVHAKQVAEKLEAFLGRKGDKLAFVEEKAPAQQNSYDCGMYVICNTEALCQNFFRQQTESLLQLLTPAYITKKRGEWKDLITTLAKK

[5] = biological target: T5, Adenosylmethionine-8-amino-7-oxononanoate aminotransferase (Mycobacterium tuberculosis, UniProt P9WQ81); assay: Mycobacterium tuberculosis BioA enzyme inhibitor Measured in Biochemical System Using Plate Reader - 2163-02_Inhibitor_Dose_CherryPick_Activity.; format: functional, Mycobacterium tuberculosis UT205
T5 sequence (P9WQ81 whole entry): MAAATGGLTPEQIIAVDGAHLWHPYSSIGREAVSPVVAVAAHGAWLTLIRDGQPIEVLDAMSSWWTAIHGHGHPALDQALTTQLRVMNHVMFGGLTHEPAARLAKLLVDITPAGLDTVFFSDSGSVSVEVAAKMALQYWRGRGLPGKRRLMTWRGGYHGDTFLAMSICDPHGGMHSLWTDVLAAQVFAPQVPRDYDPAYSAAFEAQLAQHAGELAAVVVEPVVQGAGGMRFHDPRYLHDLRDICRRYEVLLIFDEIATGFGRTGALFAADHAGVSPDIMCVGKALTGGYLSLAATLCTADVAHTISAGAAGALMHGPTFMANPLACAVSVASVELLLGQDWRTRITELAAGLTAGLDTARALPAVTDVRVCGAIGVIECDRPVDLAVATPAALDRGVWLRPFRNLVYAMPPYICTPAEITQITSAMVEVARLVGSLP

[6] = Luminescence Cell-Based Dose Response HTS to Identify Activators of Luciferase Translation or Activity in H4 […] Cells. [Related pubchem assays: 1829 (Project Summary), 1814 (Primary HTS)]; format: functional
[7] = test system: BJ; assay: cytotoxicity toward BJ-TERT fibroblasts, dose response, cell-based, RAS-independent, luminescence (AID 1933); format: functional; settings: Homo sapiens
[8] = test system: H4; assay: Luminescence Cell-Based Dose Response HTS to Identify Activators of 5'UTR Stem-Loop Driven Prion Protein mRNA Translation in H4 Neuroglioblastoma Cells. [Related pubchem assays: 1829 (Project Summary), 1814 (Primary HTS)]; format: functional; settings: Homo sapiens
[9] = test system: BJ; assay: cells; format: functional, cell-based; settings: Homo sapiens
[10] = test system: BJ; assay: cytotoxicity toward BJ-TERT-LT-ST fibroblasts, dose response, cell-based, RAS-independent, luminescence (AID 1935); format: functional; settings: Homo sapiens;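 further: BJ fibroblasts immortalized with TERT plus LT and ST oncogenes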
[11] = cytotoxicity toward DRD oncogenic fibroblasts, dose response, cell-based, non-viral oncogenic, luminescence (AID 1934); format: functional; settings: Homo sapiens
[12] = biological target: Heat shock protein HSP 90-alpha (Homo sapiens, UniProt P07900); format: functional, organism-based
[13] = test system: H9c2; assay: cells; format: functional, cell-based; settings: Rattus norvegicus, H9c2, Myocardium;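 further: confirmatory concentration-response retest of ultra-high-throughput screening hits for modulation of myocardial damage; cell death induced by hydrogen peroxide oxidative stress; compound pretreatment for 60 min then peroxide exposure for 2 h; potency is for protecting the cells against peroxide damage rather than for killing them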
[14] = A549 cell cytotoxicity, dose response, cytotoxicity control, plate reader, cherry-pick, antagonist series (AID 743412); format: functional, cell-based
[15] = LGR2 antagonists, dose response, cell-based, HEK293, CRE-luciferase reporter, cherry pick, set 2 (AID 743343); format: functional;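 further: transfected cells were stimulated with diluted bursicon conditioned medium after compound addition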
[16] = MC4R antagonists, dose response, counter-screen for LGR2 antagonist project, cell-based, plate reader, cherry pick (AID 743444); format: functional;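 further: transfected HEK 293 cells stimulated with alpha-MSH peptide; potency of inhibitors of the alpha-MSH evoked signal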
[17] = HEK293 cell cytotoxicity, dose response, cytotoxicity control, plate reader, cherry-picked samples (AID 743446); format: functional, cell-based
[18] = test system: P388/ADR; assay: cells; format: functional; settings: Mus musculus
[19] = test system: SN12K1; assay: cells; format: functional; settings: Homo sapiens
[20] = test system: P388; assay: cells; format: functional; settings: Mus musculus

C/C(=N\OC(=O)c1ccc(Cl)cc1)c1nccs1
IC50 [1]: 15.1 µM (active)
IC50 [2]: 2.63 µM (active)
IC50 [3]: 11.7 µM (active)
IC50 [4]: 19.2 µM (active)

CC(=O)c1ccc(N2CCN(C(=O)c3ccc4c(c3)OCO4)CC2)cc1
AC50 [5]: 0.155 µM (active)

O=C(CSc1nc2c(c(=O)n1-c1ccc(Cl)cc1)SCC2)N1CCOCC1
AC50 [5]: 6.81 µM (active)

CC1Cc2nc(SCC(=O)N3CCOCC3)n(-c3ccccc3)c(=O)c2S1 (stereo not given)
AC50 [5]: 5.31 µM (active)

CCOC(=O)Nc1ccc2nc(N3CCCCCC3)sc2c1
EC50 [6]: 0.153 µM (active)
EC50 [7]: 10.3 µM (inconclusive)
EC50 [8]: > 120 µM (not active)
EC50 [9]: 111 µM (active)
EC50 [10]: 55.5 µM (inconclusive)
EC50 [11]: 4.7 µM (inconclusive)
IC50 [1]: 31.1 µM (active)
IC50 [2]: 10.5 µM (active)
IC50 [3]: 33.1 µM (active)
IC50 [4]: 9.44 µM (active)

O=C(Nc1cccc(Cl)c1)Nc1ccccc1C(=O)NCc1ccco1
IC50 [1]: 21.4 µM (active)
IC50 [2]: 4.05 µM (active)
IC50 [3]: 4.44 µM (active)
IC50 [4]: > 100 µM (inactive)

O=C(/C=C/c1ccccc1)n1cnnc1SC/C=C/c1ccccc1
IC50 [1]: 37.3 µM (active)
IC50 [2]: 8.8 µM (active)
IC50 [3]: 15.2 µM (active)
IC50 [4]: 25.6 µM (active)

Nn1c(SC/C=C/c2ccccc2)nnc1-c1cccnc1
AC50 [5]: 0.311 µM (active)

O=C1CC(N2CCCCCC2)C(=O)N1c1ccc2c(c1)OCO2 (stereo not given)
AC50 [12]: 4.79 µM (active)

CCOc1ccc(-n2cc(-c3ccccc3)c3c(N4CCOCC4)ncnc32)cc1
IC50 [13]: > 79 µM (inactive)
AC50 [14]: 36.1 µM (active)
AC50 [15]: 56.7 µM (active)
AC50 [16]: 47.3 µM (active)
AC50 [17]: > 52 µM (inactive)

CCc1cc(-c2ccc3c(c2)COc2c4ccccc4nn2-3)on1
AC50 [14]: > 52 µM (inactive)
AC50 [15]: 22.7 µM (active)
AC50 [16]: 40.4 µM (active)
AC50 [17]: 47.8 µM (active)

COc1cc2c(c(OC)c1OC)C(=O)NCCC2
GI50 [18]: > 100 µM (inactive)
GI50 [19]: > 100 µM (inactive)
GI50 [20]: > 100 µM (inactive)

O=C1CCC23CC(C=CC=C12)n1c(=O)n(-c2ccccc2)c(=O)n13 (stereo not given)
GI50 [18]: 31 µM (inactive)
GI50 [19]: > 100 µM (inactive)
GI50 [20]: 49.9 µM (inactive)

COc1ccc(-c2nc3ccc([N+](=O)[O-])cc3c(=O)[nH]2)cc1
GI50 [18]: > 100 µM (inactive)
GI50 [19]: 26 µM (inactive)
GI50 [20]: > 100 µM (inactive)

C=C1C(C)C2C(Cc3ccccc3)NC(=O)C23C(OC(C)=O)/C=C/C(C)(O)CC(C)C/C=C/C3C1O (stereo not given)
GI50 [18]: 2.58 µM (inactive)
GI50 [19]: 0.0294 µM (active)
GI50 [20]: 0.608 µM (active)

N#C[C@H](OC1OC(COC2OC(CO)C(O)C(O)C2O)C(O)C(O)C1O)c1ccccc1 (stereo not given in full)
GI50 [18]: 170 µM (inactive)
GI50 [19]: > 250 µM (inactive)
GI50 [20]: 232 µM (inactive)

CCNC(=O)[C@H]1[C@H](CO)[C@H]2Cn3c(ccc(-c4ccccc4)c3=O)[C@H]2N1C(=O)Cc1cccnc1
AC50 [5]: 16.3 µM (active)

CNC(=O)ON(C(C)=O)C(=O)NC [CARACEMIDE]
GI50 [18]: 21.4 µM (inactive)
GI50 [19]: 50.9 µM (inactive)
GI50 [20]: 16.4 µM (inactive)
